Measurements: PubChem BioAssay (NCI)
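These data come from cells grown in 96-well plates and exposed to compound for 48 hours at five concentrations. GI50 = concentration required for 50% inhibition of growth. The concentration for full growth arrest is given as TGI.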

Experiments:
Test in all cases: NCI tumour cell line growth inhibition, 48 h
COLO 205 colon = system: COLO 205 colon
OVCAR-8 ovarian = system: OVCAR-8 ovarian
NCI/ADR-RES ovarian = system: NCI/ADR-RES ovarian
MALME-3M melanoma = system: MALME-3M melanoma
HCC-2998 colon = system: HCC-2998 colon
NCI-H522 lung = system: NCI-H522 lung
UACC-62 melanoma = system: UACC-62 melanoma
MDA-MB-435 = system: MDA-MB-435
SR leukemia = system: SR leukemia
A549 NSCLC = system: A549 NSCLC
HOP-62 NSCLC = system: HOP-62 NSCLC
SK-MEL-2 melanoma = system: SK-MEL-2 melanoma
HT29 colon = system: HT29 colon
SF-539 CNS = system: SF-539 CNS
RPMI-8226 leukemia = system: RPMI-8226 leukemia
IGROV1 ovarian = system: IGROV1 ovarian
SK-MEL-28 melanoma = system: SK-MEL-28 melanoma
786-0 renal = system: 786-0 renal
HS 578T breast = system: HS 578T breast
A498 renal = system: A498 renal
MDA-MB-231 breast = system: MDA-MB-231 breast
SK-MEL-5 melanoma = system: SK-MEL-5 melanoma
OVCAR-5 ovarian = system: OVCAR-5 ovarian
PC-3 prostate = system: PC-3 prostate
HOP-92 NSCLC = system: HOP-92 NSCLC
M14 melanoma = system: M14 melanoma
HCT-116 colon = system: HCT-116 colon
DU-145 prostate = system: DU-145 prostate
U251 CNS = system: U251 CNS
UACC-257 melanoma = system: UACC-257 melanoma
SK-OV-3 ovarian = system: SK-OV-3 ovarian
CAKI-1 renal = system: CAKI-1 renal
CCRF-CEM leukemia = system: CCRF-CEM leukemia
SF-268 CNS = system: SF-268 CNS
OVCAR-4 ovarian = system: OVCAR-4 ovarian
SW-620 colon = system: SW-620 colon
MOLT-4 leukemia = system: MOLT-4 leukemia
BT-549 breast = system: BT-549 breast
SNB-19 CNS = system: SNB-19 CNS
OVCAR-3 ovarian = system: OVCAR-3 ovarian
HCT-15 colon = system: HCT-15 colon
SNB-75 CNS = system: SNB-75 CNS
TK-10 renal = system: TK-10 renal
KM12 colon = system: KM12 colon
RXF 393 renal = system: RXF 393 renal
NCI-H460 lung = system: NCI-H460 lung
ACHN renal = system: ACHN renal
SN12C renal = system: SN12C renal
UO-31 renal = system: UO-31 renal
MCF7 breast = system: MCF7 breast

For `O=C1Nc2cc(OC(F)(F)F)ccc2Oc2ccc(-c3ccnc(N4CCNCC4)c3)cc21`, the GI50 (COLO 205 colon) was 1540 nM, the TGI (COLO 205 colon) was 3080 nM and the GI50 (OVCAR-8 ovarian) was 1580 nM. For the same molecule, the TGI (OVCAR-8 ovarian) was 3000 nM, the GI50 (NCI/ADR-RES ovarian) was 1610 nM and the TGI (NCI/ADR-RES ovarian) was 3500 nM. It also gave a GI50 (MALME-3M melanoma) of 1260 nM, a TGI (MALME-3M melanoma) of 2740 nM and a GI50 (HCC-2998 colon) of 1330 nM. For the same molecule, the TGI (HCC-2998 colon) was 2690 nM, the GI50 (NCI-H522 lung) was 1590 nM and the TGI (NCI-H522 lung) was 3160 nM. It also gave a GI50 (UACC-62 melanoma) of 1650 nM, a TGI (UACC-62 melanoma) of 3150 nM and a GI50 (MDA-MB-435) of 282 nM. The TGI (MDA-MB-435) was 1030 nM, the GI50 (SR leukemia) was 345 nM and the TGI (SR leukemia) was 1820 nM. It also gave a GI50 (A549 NSCLC) of 1130 nM, a TGI (A549 NSCLC) of 2510 nM and a GI50 (HOP-62 NSCLC) of 1600 nM. It also gave a TGI (HOP-62 NSCLC) of 3260 nM, a GI50 (SK-MEL-2 melanoma) of 1470 nM and a TGI (SK-MEL-2 melanoma) of 2930 nM. The GI50 (HT29 colon) was 764 nM, the TGI (HT29 colon) was 2060 nM and the GI50 (SF-539 CNS) was 1580 nM. The TGI (SF-539 CNS) was 2980 nM, the GI50 (RPMI-8226 leukemia) was 1840 nM and the TGI (RPMI-8226 leukemia) was 4780 nM. For the same molecule, the GI50 (IGROV1 ovarian) was 1200 nM, the TGI (IGROV1 ovarian) was 2550 nM and the GI50 (SK-MEL-28 melanoma) was 1390 nM. The TGI (SK-MEL-28 melanoma) was 2730 nM, the GI50 (786-0 renal) was 1530 nM and the TGI (786-0 renal) was 2890 nM. The GI50 (HS 578T breast) was 1700 nM, the TGI (HS 578T breast) was 3980 nM and the GI50 (A498 renal) was 1600 nM. For the same molecule, the TGI (A498 renal) was 2950 nM, the GI50 (MDA-MB-231 breast) was 1610 nM and the TGI (MDA-MB-231 breast) was 3180 nM. For the same molecule, the GI50 (SK-MEL-5 melanoma) was 1620 nM, the TGI (SK-MEL-5 melanoma) was 3010 nM and the GI50 (OVCAR-5 ovarian) was 1460 nM. For the same molecule, the TGI (OVCAR-5 ovarian) was 3290 nM, the GI50 (PC-3 prostate) was 1290 nM and the TGI (PC-3 prostate) was 2870 nM. For the same molecule, the GI50 (HOP-92 NSCLC) was 1170 nM, the TGI (HOP-92 NSCLC) was 2510 nM and the GI50 (M14 melanoma) was 1230 nM. It also gave a TGI (M14 melanoma) of 2540 nM, a GI50 (HCT-116 colon) of 1000 nM and a TGI (HCT-116 colon) of 2170 nM. For the same molecule, the GI50 (DU-145 prostate) was 1650 nM, the TGI (DU-145 prostate) was 3080 nM and the GI50 (U251 CNS) was 1460 nM. It also gave a TGI (U251 CNS) of 2850 nM, a GI50 (UACC-257 melanoma) of 1550 nM and a TGI (UACC-257 melanoma) of 3050 nM. The GI50 (SK-OV-3 ovarian) was 2570 nM, the TGI (SK-OV-3 ovarian) was 6790 nM and the GI50 (CAKI-1 renal) was 1150 nM. The TGI (CAKI-1 renal) was 2430 nM, the GI50 (CCRF-CEM leukemia) was 1870 nM and the TGI (CCRF-CEM leukemia) was 6760 nM. For the same molecule, the GI50 (SF-268 CNS) was 1700 nM, the TGI (SF-268 CNS) was 3480 nM and the GI50 (OVCAR-4 ovarian) was 1620 nM. The TGI (OVCAR-4 ovarian) was 3250 nM, the GI50 (SW-620 colon) was 516 nM and the TGI (SW-620 colon) was 1730 nM. It also gave a GI50 (MOLT-4 leukemia) of 1080 nM, a TGI (MOLT-4 leukemia) of 3290 nM and a GI50 (BT-549 breast) of 1950 nM. The TGI (BT-549 breast) was 3740 nM, the GI50 (SNB-19 CNS) was 1550 nM and the TGI (SNB-19 CNS) was 3140 nM. The GI50 (OVCAR-3 ovarian) was 1120 nM, the TGI (OVCAR-3 ovarian) was 2490 nM and the GI50 (HCT-15 colon) was 864 nM. It also gave a TGI (HCT-15 colon) of 4560 nM, a GI50 (SNB-75 CNS) of 1500 nM and a TGI (SNB-75 CNS) of 2860 nM. The GI50 (TK-10 renal) was 1500 nM, the TGI (TK-10 renal) was 3470 nM and the GI50 (KM12 colon) was 900 nM. The TGI (KM12 colon) was 2740 nM, the GI50 (RXF 393 renal) was 1390 nM and the TGI (RXF 393 renal) was 2840 nM. The GI50 (NCI-H460 lung) was 655 nM, the TGI (NCI-H460 lung) was 1940 nM and the GI50 (ACHN renal) was 1680 nM. For the same molecule, the TGI (ACHN renal) was 3050 nM, the GI50 (SN12C renal) was 1790 nM and the TGI (SN12C renal) was 3620 nM. The GI50 (UO-31 renal) was 1340 nM, the TGI (UO-31 renal) was 2660 nM and the GI50 (MCF7 breast) was 840 nM. It also gave a TGI (MCF7 breast) of over 100000 nM.
